Measured values from patent publication US8148391B2 (Cephalon, Inc., priority 2006, dated 2012).
Where two headings read alike, the source gives them in different places. Blank lines part the entries; values can stand above or below the molecule they belong to.

Experiments:
[1] = target: T1, c-Met (cytoplasmic domain) (Homo sapiens, UniProt P08581); assay: c-Met Kinase Assay (same methods as for ALK, with modifications); assay type: biochemical
T1 construct: 10 ng/mL c-Met (cytoplasmic domain, Invitrogen Corporation #PV3143); purchased Invitrogen Corporation PV3143
In short: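 Steps: coat wells with PLC-γ (10 μg/mL, Tris-buffered saline); add 10 ng/mL c-Met cytoplasmic domain to initiate; incubate 15 min, 37° C; detect phosphoproduct via Eu-N1 PT66 antibody.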

[2] = target: T2, baculovirus-expressed ALK (Homo sapiens, UniProt Q9UM73); assay: ALK Kinase Assay (ELISA-type, time-resolved fluorescence); assay type: biochemical
T2 construct: host or cells: baculovirus expression system
In short: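 Wells were coated with phospholipase C-γ at 10 μg/mL in Tris-buffered saline. Adding 30 ng/ml enzyme started the reaction, which ran at 37° C for 15 minutes before Eu-N1 PT66 antibody detection. Percent inhibition versus log10 concentration gave IC50 by variable-slope fit.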

[3] = 1 μM ATP (Km level), read-out: ALK Activity (ALK Kinase Inhibition, IC50)
[4] = c-Met kinase inhibition, 1 μM ATP, read-out: cMet Activity
[5] = ALK kinase inhibition, 1 μM ATP, read-out: ALK Activity
[6] = c-Met kinase inhibition, 1 μM ATP (Km level), read-out: cMet Activity
[7] = ALK kinase inhibition, 1 μM ATP (Km level), read-out: ALK Activity
[8] = 1 μM ATP (Km level), read-out: cMet Activity (c-Met Kinase Inhibition, IC50)
[9] = 1 μM ATP (Km level), 30 ng/ml ALK, 37° C., 15 minutes, read-out: ALK Activity (ALK kinase inhibition, IC50 class)
[10] = 1 μM ATP (Km level), 10 ng/mL c-Met, read-out: cMet Activity (c-Met kinase inhibition, IC50 class)

T2 sequence (Q9UM73 19-1620): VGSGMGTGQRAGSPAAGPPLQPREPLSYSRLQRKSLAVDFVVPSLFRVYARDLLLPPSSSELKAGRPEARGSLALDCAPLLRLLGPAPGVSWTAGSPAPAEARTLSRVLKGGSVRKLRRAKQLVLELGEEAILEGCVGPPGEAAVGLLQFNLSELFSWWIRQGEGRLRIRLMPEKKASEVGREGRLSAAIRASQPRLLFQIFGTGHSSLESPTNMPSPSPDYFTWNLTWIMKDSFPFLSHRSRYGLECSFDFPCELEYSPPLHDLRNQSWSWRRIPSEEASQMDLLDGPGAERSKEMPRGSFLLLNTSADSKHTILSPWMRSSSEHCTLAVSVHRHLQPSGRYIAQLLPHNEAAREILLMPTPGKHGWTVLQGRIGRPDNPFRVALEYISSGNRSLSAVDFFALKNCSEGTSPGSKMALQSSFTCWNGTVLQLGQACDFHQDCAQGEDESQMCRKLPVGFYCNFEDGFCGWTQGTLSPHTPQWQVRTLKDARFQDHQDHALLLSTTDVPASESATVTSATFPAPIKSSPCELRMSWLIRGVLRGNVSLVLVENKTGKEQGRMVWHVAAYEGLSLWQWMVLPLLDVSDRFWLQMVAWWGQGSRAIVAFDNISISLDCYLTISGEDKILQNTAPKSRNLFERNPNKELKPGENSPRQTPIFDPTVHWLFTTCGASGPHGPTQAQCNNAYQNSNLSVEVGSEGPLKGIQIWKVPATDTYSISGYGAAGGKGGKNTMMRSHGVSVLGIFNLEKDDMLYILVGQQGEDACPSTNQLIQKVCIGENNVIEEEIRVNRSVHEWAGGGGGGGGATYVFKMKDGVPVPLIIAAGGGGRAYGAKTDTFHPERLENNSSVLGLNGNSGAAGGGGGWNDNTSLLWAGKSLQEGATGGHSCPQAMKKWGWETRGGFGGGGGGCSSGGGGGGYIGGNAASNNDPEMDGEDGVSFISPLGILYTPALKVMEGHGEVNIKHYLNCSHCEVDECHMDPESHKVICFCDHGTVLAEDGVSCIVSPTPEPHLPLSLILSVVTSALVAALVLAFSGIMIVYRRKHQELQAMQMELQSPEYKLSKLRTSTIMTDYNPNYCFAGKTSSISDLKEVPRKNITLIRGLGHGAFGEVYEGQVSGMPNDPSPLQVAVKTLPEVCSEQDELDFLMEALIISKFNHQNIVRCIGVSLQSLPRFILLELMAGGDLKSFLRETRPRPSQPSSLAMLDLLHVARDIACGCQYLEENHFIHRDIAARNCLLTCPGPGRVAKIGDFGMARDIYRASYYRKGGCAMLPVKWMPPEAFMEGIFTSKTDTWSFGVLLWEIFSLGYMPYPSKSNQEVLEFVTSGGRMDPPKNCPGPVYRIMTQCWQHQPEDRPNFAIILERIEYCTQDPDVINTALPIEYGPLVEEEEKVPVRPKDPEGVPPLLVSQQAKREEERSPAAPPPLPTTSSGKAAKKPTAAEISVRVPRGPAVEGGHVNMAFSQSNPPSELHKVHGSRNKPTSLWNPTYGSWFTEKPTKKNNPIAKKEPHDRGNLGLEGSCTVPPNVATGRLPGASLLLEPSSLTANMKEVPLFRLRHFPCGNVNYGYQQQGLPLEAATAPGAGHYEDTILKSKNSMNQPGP
T1 sequence (P08581 956-1390 limits assumed): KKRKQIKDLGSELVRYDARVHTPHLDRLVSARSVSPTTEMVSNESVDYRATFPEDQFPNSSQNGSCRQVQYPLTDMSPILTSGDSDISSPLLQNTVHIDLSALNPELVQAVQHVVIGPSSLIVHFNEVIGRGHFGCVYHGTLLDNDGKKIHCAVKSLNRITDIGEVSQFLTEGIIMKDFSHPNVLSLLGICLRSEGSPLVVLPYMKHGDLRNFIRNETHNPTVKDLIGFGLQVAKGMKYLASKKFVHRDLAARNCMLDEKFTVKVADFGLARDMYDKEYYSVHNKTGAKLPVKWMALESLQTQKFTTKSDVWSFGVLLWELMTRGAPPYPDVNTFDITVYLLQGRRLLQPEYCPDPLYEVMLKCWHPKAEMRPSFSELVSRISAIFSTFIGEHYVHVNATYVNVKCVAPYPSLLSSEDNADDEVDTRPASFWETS

SMILES: COc1c(Nc2ncc(Cl)c(N[C@H]3[C@@H](C(N)=O)[C@@H]4C=C[C@H]3C4)n2)ccc2c1CC[C@@H](N1CCOCC1)CC2 [Example 882, (1S,2S,3R,4R)-3-[5-Chloro-2-((S)-1-methoxy-7-morpholin-4-yl-6,7,8,9-tetrahydro-5H-benzocyclohepten-2-ylamino)-pyrimidin-4-ylamino]-bicyclo[2.2.1]hept-5-ene-2-carboxylic acid amide]
IC50 ([1]; cMet Activity (c-Met Kinase Inhibition, IC50), 1 μM ATP (Km level)): > 10 µM
IC50 [2, 3]: < 0.1 µM

IC50 [1, 4]: < 0.1 µM
IC50 [2, 5]: < 0.1 µM
SMILES: CCN1C(=O)CCC(C)(C)c2ccc(Nc3ncc(Cl)c(Nc4ccccc4S(=O)(=O)N(C)C)n3)cc21 [Example 1595, 2-[5-Chloro-2-(1-ethyl-5,5-dimethyl-2-oxo-2,3,4,5-tetrahydro-1H-benzo[b]azepin-8-ylamino)-pyrimidin-4-ylamino]-N,N-dimethyl-benzenesulfonamide]

IC50 [1, 4]: 0.1 to 1 µM
IC50 [2, 5]: 0.1 to 1 µM
SMILES: COCCOc1ccccc1Nc1nc(Nc2ccc3c(c2)CCOC(=O)N3C)ncc1Cl [Example 1777, 2-{5-Chloro-4-[2-(2-methoxy-ethoxy)-phenylamino]-pyrimidin-2-ylamino}-5-methyl-8,9-dihydro-5H-7-oxa-5-aza-benzocyclohepten-6-one]

IC50 [1, 6]: < 0.1 µM
IC50 [2, 7]: < 0.1 µM
SMILES: CN1C(=O)CCCc2cc(Nc3ncc(Cl)c(Nc4ccc(N5CCCCC5)cc4C(N)=O)n3)ccc21 [Example 354, 2-[5-Chloro-2-(1-methyl-2-oxo-2,3,4,5-tetrahydro-1H-benzo[b]azepin-7-ylamino)-pyrimidin-4-ylamino]-5-piperidin-1-yl-benzamide]

IC50 [1, 8]: 0.1 to 1 µM
IC50 [2, 3]: < 0.1 µM
SMILES: COCCN1CCc2ccc(Nc3ncc(Cl)c(Nc4ccc(OC)c5c4C(=O)N(C)C5)n3)cc2CC1 [Example 936, 7-{5-Chloro-2-[3-(2-methoxy-ethyl)-2,3,4,5-tetrahydro-1H-3-benzazepin-7-ylamino]-pyrimidin-4-ylamino}-4-methoxy-2-methyl-2,3-dihydro-isoindol-1-one]

SMILES: CNC(=O)c1ccccc1Nc1nc(Nc2ccc3c(c2Cl)C2CCC(C3)N2)ncc1Cl (centres unmarked) [Example 81, 2-[5-Chloro-2-(3-chloro-12-aza-tricyclo[7.2.1.0*2,7*]dodeca-2(7),3,5-trien-4-ylamino)-pyrimidin-4-ylamino]-N-methyl-benzamide]
IC50 [1, 6]: 0.1 to 1 µM
IC50 [2, 7]: < 0.1 µM

SMILES: COc1c(Nc2ncc(Cl)c(N[C@H]3[C@@H](C(N)=O)[C@@H]4C=C[C@H]3C4)n2)ccc2c1CC(N1CCOCC1)CCC2 (mixture of isomers) [Example 1204, (1S,2S,3R,4R)-3-[5-Chloro-2-(1-methoxy-8-morpholin-4-yl-6,7,8,9-tetrahydro-5H-benzocyclohepten-2-ylamino)-pyrimidin-4-ylamino]-bicyclo[2.2.1]hept-5-ene-2-carboxylic acid amide]
IC50 ([1]; cMet Activity (c-Met kinase inhibition, IC50 class), 1 μM ATP (Km level), 10 ng/mL c-Met): > 10 µM
IC50 [2, 9]: < 0.1 µM

IC50 [1, 8]: 1 to 10 µM
IC50 [2, 3]: < 0.1 µM
SMILES: COc1ccc(Nc2nc(Nc3ccc4c(c3)CCC(O)CC4)ncc2Cl)c(-n2cccn2)c1 (centres unmarked) [Example 623, 2-[5-Chloro-4-(4-methoxy-2-pyrazol-1-yl-phenylamino)-pyrimidin-2-ylamino]-6,7,8,9-tetrahydro-5H-benzocyclohepten-7-ol]

IC50 [1, 4]: 0.1 to 1 µM
IC50 [2, 5]: < 0.1 µM
SMILES: CN1C(=O)CCC(C)(C)c2cc(Nc3ncc(Cl)c(N[C@H]4[C@@H](C(N)=O)[C@@H]5C=C[C@H]4C5)n3)ccc21 [Example 1571, (1S,2S,3R,4R)-3-[5-Chloro-2-(1,5,5-trimethyl-2-oxo-2,3,4,5-tetrahydro-1H-benzo[b]azepin-7-ylamino)-pyrimidin-4-ylamino]-bicyclo[2.2.1]hept-5-ene-2-carboxylic acid amide]

IC50 [1, 8]: > 10 µM
IC50 [2, 3]: < 0.1 µM
SMILES: COc1cc2c(cc1Nc1ncc(Cl)c(N[C@H]3[C@@H](C(N)=O)[C@@H]4C=C[C@H]3C4)n1)CCN(CC1CC1)CC2 [Example 775, (1S,2S,3R,4R)-3-[5-Chloro-2-(3-cyclopropylmethyl-8-methoxy-2,3,4,5-tetrahydro-1H-benzo[d]azepin-7-ylamino)-pyrimidin-4-ylamino]-bicyclo[2.2.1]hept-5-ene-2-carboxylic acid amide]

IC50 [1, 10]: < 0.1 µM
IC50 [2, 9]: 0.1 to 1 µM
SMILES: C#CCNC(=O)c1cccc(F)c1Nc1nc(Nc2ccc3c(c2)OCCCN3CC)ncc1Cl [Example 1407, 2-[5-Chloro-2-(9-ethyl-6,7,8,9-tetrahydro-5-oxa-9-aza-benzocyclohepten-3-ylamino)-pyrimidin-4-ylamino]-3-fluoro-N-prop-2-ynyl-benzamide]

IC50 [1, 4]: 0.1 to 1 µM
IC50 [2, 5]: 0.1 to 1 µM
SMILES: CNC(=O)c1cccc(F)c1Nc1nc(Nc2ccc3c(c2)N(C(C)C)CCCC3(C)C)ncc1Cl [Example 1626, 2-[5-Chloro-2-(1-isopropyl-5,5-dimethyl-2,3,4,5-tetrahydro-1H-benzo[b]azepin-8-ylamino)-pyrimidin-4-ylamino]-3-fluoro-N-methyl-benzamide]

IC50 [1, 4]: < 0.1 µM
IC50 [2, 5]: 0.1 to 1 µM
SMILES: C#CCNC(=O)c1cccc(F)c1Nc1nc(Nc2ccc3c(c2)OCCCN3C(=O)CN2CCCC2)ncc1Cl [Example 1716, 2-{5-Chloro-2-[9-(2-pyrrolidin-1-yl-acetyl)-6,7,8,9-tetrahydro-5-oxa-9-aza-benzocyclohepten-3-ylamino]-pyrimidin-4-ylamino}-3-fluoro-N-prop-2-ynyl-benzamide]

IC50 [1, 8]: 1 to 10 µM
IC50 [2, 3]: < 0.1 µM
SMILES: CN1CCN(C2CCN(C3CCc4ccc(Nc5ncc(Cl)c(N[C@@H]6CCCC[C@H]6NS(C)(=O)=O)n5)cc4CC3)CC2)CC1 (stereo partly drawn) [Example 886, N-[(1R,2R)-2-(5-Chloro-2-{7-[4-(4-methyl-piperazin-1-yl)-piperidin-1-yl]-6,7,8,9-tetrahydro-5H-benzocyclohepten-2-ylamino}-pyrimidin-4-ylamino)-cyclohexyl]-methanesulfonamide]

IC50 [1, 10]: 0.1 to 1 µM
IC50 [2, 9]: 0.1 to 1 µM
SMILES: O=C1CCCc2ccc(Nc3ncc(Cl)c(Nc4c(F)cccc4OCC4CCOC4)n3)cc2N1 (centres unmarked) [Example 1276, 8-{5-Chloro-4-[2-fluoro-6-(tetrahydro-furan-3-ylmethoxy)-phenylamino]-pyrimidin-2-ylamino}-1,3,4,5-tetrahydro-1-benzazepin-2-one]

IC50 [1, 6]: > 10 µM
IC50 [2, 7]: 0.1 to 1 µM
SMILES: CNC(=O)c1ccccc1Nc1nc(Nc2ccc(OC)c3c2N(C)C(=O)CCC3)ncc1Cl [Example 123, 2-[5-Chloro-2-(6-methoxy-1-methyl-2-oxo-2,3,4,5-tetrahydro-1H-benzo[b]azepin-9-ylamino)-pyrimidin-4-ylamino]-N-methyl-benzamide]

IC50 [1, 6]: < 0.1 µM
IC50 [2, 7]: < 0.1 µM
SMILES: CNS(=O)(=O)c1ccccc1Nc1nc(Nc2ccc3c(c2)CCCC(=O)N3CC(=O)N2CCN(C)CC2)ncc1Cl [Example 10, 2-(5-Chloro-2-{1-[2-(4-methyl-piperazin-1-yl)-2-oxo-ethyl]-2-oxo-2,3,4,5-tetrahydro-1H-benzo[b]azepin-7-ylamino}-pyrimidin-4-ylamino)-N-methyl-benzenesulfonamide]

IC50 [1, 4]: 0.1 to 1 µM
IC50 [2, 5]: 0.1 to 1 µM
SMILES: CNC(=O)c1sccc1Nc1nc(Nc2ccc3c(c2)N(C(=O)CN2CCCC2)CCCO3)ncc1Cl [Example 1705, 3-{5-Chloro-2-[9-(2-pyrrolidin-1-yl-acetyl)-6,7,8,9-tetrahydro-5-oxa-9-aza-benzocyclohepten-2-ylamino]-pyrimidin-4-ylamino}-thiophene-2-carboxylic acid methylamide]

IC50 [1, 4]: 0.1 to 1 µM
IC50 [2, 5]: 1 to 10 µM
SMILES: CNC(=O)c1scc(C)c1Nc1nc(Nc2ccc3c(c2)-c2nccn2CCC3)ncc1Cl [Example 1846, 3-[5-Chloro-2-(5,6-dihydro-4H-1,3a-diaza-benzo[e]azulen-9-ylamino)-pyrimidin-4-ylamino]-4-methyl-thiophene-2-carboxylic acid methylamide]

IC50 [1, 6]: 1 to 10 µM
IC50 [2, 7]: < 0.1 µM
SMILES: CC1(C)CCC(=O)Nc2ccc(Nc3ncc(Cl)c(N[C@@H]4CCCC[C@H]4NS(C)(=O)=O)n3)cc21 [Example 383, N-{(1R,2R)-2-[5-Chloro-2-(5,5-dimethyl-2-oxo-2,3,4,5-tetrahydro-1H-benzo[b]azepin-7-ylamino)-pyrimidin-4-ylamino]-cyclohexyl}-methanesulfonamide]

IC50 [1, 4]: > 10 µM
IC50 [2, 5]: < 0.1 µM
SMILES: COc1cc2c(cc1Nc1ncc(Cl)c(Nc3ccc(N(C)C)cc3OC)n1)CCN(CC(=O)N1CCN(C)CC1)CC2 [Example 1540, 2-{7-[5-Chloro-4-(4-dimethylamino-2-methoxy-phenylamino)-pyrimidin-2-ylamino]-8-methoxy-1,2,4,5-tetrahydro-3-benzazepin-3-yl}-1-(4-methyl-piperazin-1-yl)-ethanone]

IC50 [1, 10]: 0.1 to 1 µM
IC50 [2, 9]: < 0.1 µM
SMILES: C#CCNC(=O)c1cccc(F)c1Nc1nc(Nc2ccc3c(c2)OCCCN3C(=O)OCCOC)ncc1Cl [Example 1437, 3-[5-Chloro-4-(2-fluoro-6-prop-2-ynylcarbamoyl-phenylamino)-pyrimidin-2-ylamino]-7,8-dihydro-6H-5-oxa-9-aza-benzocycloheptene-9-carboxylic acid 2-methoxy-ethyl ester]
